From publication PMC3701070 (PLoS ONE, 2013)
pIC50: −log10 of the molar value. Read-outs that look alike come from different tables or passages of the source.

Columns and labels:
A375 = experiment: Cell growth assay; format: cell-based; conditions: Homo sapiens, A-375, 72 h; A375, BRAF(V600E), RAS WT, 3-day; read-out: gIC50
Method: (§1) Growth was measured with CellTiter-Glo® (Promega) reagent per the manufacturer’s protocol, using a PerkinElmer EnVision™ reader at t = 0 and 72 h. IC50 values for cell growth inhibition (gIC50) were determined.
(§2) (PDF) Click here for additional data file.
Supplementary file pone.0067583.s006.pdf: Table S3 Enzymatic and cellular activity of tool inhibitors used in the rat skin lesion formation study. Activity of GSK2366297A (BRAF tool inhibitor) and GSK2091975 (MEK tool inhibitor, active form of prodrug GSK2091976) were measured against their respective enzyme targets as described in the Materials and Methods section. Cellular activity was determined for each by inhibition of ERK phosphorylation in SK-MEL-28 cells and growth of A375 cells, both of which express BRAF^V600E. (PDF) Click here for additional data file.

A375P tumor xenograft = conditions: groups of 8 mice, cited from earlier work
A375P cells = experiment: Cell cycle analysis; format: cell-based, human; conditions: A375P (BRAF^V600E), 72-hour exposure
Method: (§3) Cells were permeabilized, DNA was stained with propidium iodide, and samples were read on a BD LSRII flow cytometer. Data were analyzed using the cell cycle platform of FlowJo v6.1.1 software.
(§4) Cell cycle phases are shown in stacked format as a percentage of the total population. […] (PPTX) Click here for additional data file.

SK-MEL-28 cells = experiment: Cell cycle analysis; format: cell-based, human; conditions: SK-MEL-28 (BRAF^V600E), 72-hour exposure
Method: as §3, §4

SNU-449 = experiment: Cell growth assay; format: cell-based; conditions: Homo sapiens, 72 h; SNU-449, RAF WT, RAS WT, 3-day; read-out: gIC50
Method: as §1, §2

YAPC = experiment: Cell growth assay; format: cell-based; conditions: Homo sapiens, 72 h, RAF WT, RAS WT, 3-day, read-out: gIC50
Method: as §1, §2

KHOS-240S = experiment: Cell growth assay; format: cell-based; conditions: Homo sapiens, 72 h, RAF WT, RAS WT, 3-day, read-out: gIC50
Method: as §1, §2

GDM-1 = experiment: Cell growth assay; format: cell-based; conditions: Homo sapiens, 72 h; GDM-1, RAF WT, RAS WT, 3-day; read-out: gIC50
Method: as §1, §2

SK-UT-1 = experiment: Cell growth assay; format: cell-based; conditions: Homo sapiens, 72 h; SK-UT-1, RAF WT, RAS WT, 3-day; read-out: gIC50
Method: as §1, §2

SCC-15 = experiment: Cell growth assay; format: cell-based; conditions: Homo sapiens, 72 h; SCC-15, RAF WT, RAS WT, 3-day; read-out: gIC50
Method: as §1, §2

Hs746.T = experiment: Cell growth assay; format: cell-based; conditions: Homo sapiens, Hs746T, 72 h, RAF WT, RAS WT, 3-day, read-out: gIC50
Method: as §1, §2

DU-145 = experiment: Cell growth assay; format: cell-based; conditions: Homo sapiens, 72 h; DU-145, RAF WT, RAS WT, 3-day; read-out: gIC50
Method: as §1, §2

OE-19 = experiment: Cell growth assay; format: cell-based; conditions: Homo sapiens, OE19, 72 h; OE-19, RAF WT, RAS WT, 3-day; read-out: gIC50
Method: as §1, §2

SK-N-AS = experiment: Cell growth assay; format: cell-based; conditions: Homo sapiens, 72 h, RAF WT, NRAS(Q61K), 3-day, read-out: gIC50
Method: as §1, §2

HeLa = experiment: Cell growth assay; format: cell-based; conditions: Homo sapiens, 72 h, RAF WT, RAS WT, 3-day, read-out: gIC50
Method: as §1, §2

NCI-H226 = experiment: Cell growth assay; format: cell-based; conditions: Homo sapiens, 72 h; NCI-H226, RAF WT, RAS WT, 3-day; read-out: gIC50
Method: as §1, §2

OVCAR-4 = experiment: Cell growth assay; format: cell-based; conditions: Homo sapiens, 72 h; OVCAR-4, RAF WT, RAS WT, 3-day; read-out: gIC50
Method: as §1, §2

SNB-19 = experiment: Cell growth assay; format: cell-based; conditions: Homo sapiens, 72 h; SNB-19, RAF WT, RAS WT, 3-day; read-out: gIC50
Method: as §1, §2

J82 = experiment: Cell growth assay; format: cell-based; conditions: Homo sapiens, 72 h; J82, RAF WT, RAS WT, 3-day; read-out: gIC50
Method: as §1, §2

SN12C = experiment: Cell growth assay; format: cell-based; conditions: Homo sapiens, 72 h, RAF WT, RAS WT, 3-day, read-out: gIC50
Method: as §1, §2

HN5 = experiment: Cell growth assay; format: cell-based; conditions: Homo sapiens, 72 h; HN5, RAF WT, RAS WT, 3-day; read-out: gIC50
Method: as §1, §2

UACC-812 = experiment: Cell growth assay; format: cell-based; conditions: Homo sapiens, 72 h; UACC-812, RAF WT, RAS WT, 3-day; read-out: gIC50
Method: as §1, §2

BRAF [1] = target: T1, BRAF (Canis lupus familiaris, UniProt A0A8I3SCX1); experiment: BRAF/CRAF-activated MEK ATPase coupled assay; format: biochemical; conditions: Enzyme BRAF, Dog
T1 construct: Full-length BRAF genes were tagged with 6×His-SBP; 6xHis-SBP; made in house; host or cells: HEK293F
Method: (§5) Various BRAF orthologs (human, cynomolgus monkey, dog, rat) were cloned in-house. […] Full-length BRAF genes were tagged with 6×His-SBP and transiently transfected in a HEK293F expression system (Invitrogen K9000-01 protocol). Transfected cells were incubated at 37°C, 5% CO2 on a shaker at 80 r.p.m. for 48 h and harvested by centrifugation. BRAF proteins were purified by UltraLink®-immobilized Streptavidin affinity and Superdex™ 200 size exclusion chromatography.
(§6) N-terminal GST-tagged MEK1 was expressed in BL21[DE3]/pRR692 cells and purified by Glutathione Sepharose™ 4FF and Q-Sepharose™ chromatography. The GST tag was cleaved with TEV protease and MEK1 was purified on a Superdex™ 200 column.

BRAF [2] = target: T2, BRAF (Rattus norvegicus, UniProt A0A8I6AFV6); experiment: BRAF/CRAF-activated MEK ATPase coupled assay; format: biochemical; conditions: Enzyme BRAF
T2 construct: Full-length BRAF genes were tagged with 6×His-SBP; 6xHis-SBP; made in house; host or cells: HEK293F
Method: as §5, §6

BRAF [3] = target: BRAF (Macaca fascicularis, UniProt A0A7N9IA21); experiment: BRAF/CRAF-activated MEK ATPase coupled assay; format: biochemical; conditions: Enzyme BRAF, Cyno
Method: as §5, §6

BRAF (Macaca fascicularis, UniProt A0A7N9IA21), sequence (A0A7N9IA21 entry or part of it): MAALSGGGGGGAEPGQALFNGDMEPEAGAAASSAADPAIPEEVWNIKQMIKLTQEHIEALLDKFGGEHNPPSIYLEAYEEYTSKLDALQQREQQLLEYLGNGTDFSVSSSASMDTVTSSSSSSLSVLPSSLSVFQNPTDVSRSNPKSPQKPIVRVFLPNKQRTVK
T2 sequence (A0A8I6AFV6 1-804): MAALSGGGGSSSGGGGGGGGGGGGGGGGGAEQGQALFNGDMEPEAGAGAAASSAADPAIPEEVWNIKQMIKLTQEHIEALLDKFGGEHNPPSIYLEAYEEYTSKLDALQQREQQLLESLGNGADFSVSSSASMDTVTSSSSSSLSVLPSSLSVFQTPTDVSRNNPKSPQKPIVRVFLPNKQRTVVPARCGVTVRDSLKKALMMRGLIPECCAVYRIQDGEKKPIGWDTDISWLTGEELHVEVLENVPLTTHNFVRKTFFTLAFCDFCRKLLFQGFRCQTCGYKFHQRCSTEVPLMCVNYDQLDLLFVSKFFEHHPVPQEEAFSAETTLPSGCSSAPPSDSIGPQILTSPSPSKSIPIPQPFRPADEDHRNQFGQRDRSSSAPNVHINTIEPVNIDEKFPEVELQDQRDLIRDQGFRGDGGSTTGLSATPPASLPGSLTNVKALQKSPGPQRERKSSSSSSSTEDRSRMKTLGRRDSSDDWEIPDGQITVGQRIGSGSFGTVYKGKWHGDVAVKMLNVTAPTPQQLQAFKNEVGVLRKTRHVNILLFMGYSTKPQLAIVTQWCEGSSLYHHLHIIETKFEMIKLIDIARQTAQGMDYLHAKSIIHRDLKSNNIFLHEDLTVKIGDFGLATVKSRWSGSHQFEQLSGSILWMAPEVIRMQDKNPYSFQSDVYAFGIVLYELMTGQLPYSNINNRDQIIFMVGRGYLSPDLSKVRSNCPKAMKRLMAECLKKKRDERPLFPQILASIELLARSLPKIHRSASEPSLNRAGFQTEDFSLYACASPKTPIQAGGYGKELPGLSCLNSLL
T1 sequence (A0A8I3SCX1 1-803): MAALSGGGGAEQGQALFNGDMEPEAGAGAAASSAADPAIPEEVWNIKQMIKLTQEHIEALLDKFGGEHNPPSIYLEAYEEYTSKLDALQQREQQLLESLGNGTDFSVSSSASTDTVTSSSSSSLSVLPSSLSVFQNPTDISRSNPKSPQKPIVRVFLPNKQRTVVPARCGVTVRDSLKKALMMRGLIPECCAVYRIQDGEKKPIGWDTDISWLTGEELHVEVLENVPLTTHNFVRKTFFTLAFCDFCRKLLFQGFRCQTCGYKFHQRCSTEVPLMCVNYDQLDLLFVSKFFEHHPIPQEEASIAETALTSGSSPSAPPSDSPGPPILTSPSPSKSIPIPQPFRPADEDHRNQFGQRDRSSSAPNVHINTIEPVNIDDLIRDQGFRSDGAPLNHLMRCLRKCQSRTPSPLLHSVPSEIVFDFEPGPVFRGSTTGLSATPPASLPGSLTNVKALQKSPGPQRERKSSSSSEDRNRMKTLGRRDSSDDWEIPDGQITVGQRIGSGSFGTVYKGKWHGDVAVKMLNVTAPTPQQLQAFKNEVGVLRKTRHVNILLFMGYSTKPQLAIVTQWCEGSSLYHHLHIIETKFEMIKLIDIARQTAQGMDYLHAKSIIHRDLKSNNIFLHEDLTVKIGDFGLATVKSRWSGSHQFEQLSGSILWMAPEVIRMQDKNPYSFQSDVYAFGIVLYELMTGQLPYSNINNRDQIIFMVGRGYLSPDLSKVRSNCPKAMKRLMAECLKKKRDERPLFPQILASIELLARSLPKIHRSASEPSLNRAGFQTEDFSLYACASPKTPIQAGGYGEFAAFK

For `CC(C)(C)c1nc(-c2cccc(NS(=O)(=O)c3c(F)cccc3F)c2F)c(-c2ccnc(N)n2)s1` [dabrafenib], the pIC50 (A375) is given as 8.40, the complete regressions (A375P tumor xenograft; 10 mg/kg) is given as 1 and the partial regressions (A375P tumor xenograft; 10 mg/kg) is given as 2. For the same molecule, the complete regressions (A375P tumor xenograft; 100 mg/kg) was 4, the partial regressions (A375P tumor xenograft; 100 mg/kg) was 2 and the “effect on cell cycle” value (A375P cells) was “arrested the BRAF^V600E cells at the G1 (2n DNA) phase of the cell cycle”. For the same molecule, the “effect on cell cycle” value (SK-MEL-28 cells) was “arrested the BRAF^V600E cells at the G1 (2n DNA) phase of the cell cycle”, the pIC50 (SNU-449) was under 5.00 and the pIC50 (YAPC) was under 5.00. The pIC50 (KHOS-240S) was under 5.00, the pIC50 (GDM-1) was 5.70 and the pIC50 (SK-UT-1) was under 5.00. It also gave a pIC50 (SCC-15) of under 5.00, a pIC50 (Hs746.T) of under 5.00 and a pIC50 (DU-145) of under 5.00. For the same molecule, the pIC50 (OE-19) was under 5.00, the pIC50 (SK-N-AS) was under 5.00 and the pIC50 (HeLa) was under 5.00. The pIC50 (NCI-H226) was under 5.00, the pIC50 (OVCAR-4) was under 5.00 and the pIC50 (SNB-19) was under 5.00. For the same molecule, the pIC50 (J82) was under 5.00, the pIC50 (SN12C) was under 5.00 and the pIC50 (HN5) was under 5.00. It also gave a pIC50 (UACC-812) of under 5.00, a pIC50 (BRAF [1]) of 8.40 and a pIC50 (BRAF [2]) of 8.40. The pIC50 (BRAF [3]; read-out: IC50) was 8.40 and the IC50 (BRAF [3]; read-out: pIC50 +/- std. dev. (converted)) was 0.00398 µM.
